Patent US12521398B2, “Composition for treating synucleinopathies” (STANDIGM INC., priority 2019, dated 2026)
Read-outs that look alike come from different tables or passages of the source. Each block holds one compound with its values, some of them ahead of it.

Tests used:
Assay type in all cases: cell-based
α-synuclein = molecular target: T1, α-synuclein (Homo sapiens, UniProt P37840); assay: Dual chamber assay, cell-to-cell transmission of α-synuclein in SH-SY5Y cells; conditions: 12 hours
T1 construct: expressed in transfected cells; host or cells: SH-SY5Y
Procedure: A slide glass was included in the plate to stain the cells after the cell culture.
In an insert well of the 12-well plate as the apical chamber, an SH-SY5Y cell line in which α-synuclein was over-expressed was seeded at a density of 4×10^4 cells/well, and in the 12-well plate as the basal chamber, an SH-SY5Y cell line in which α-synuclein was not over-expressed was seeded at a density of 4×10^4 cells/well and they were incubated at a constant temperature. The next day, the insert well was transferred to a place where the 12-well plate was placed to form a dual chamber. Thereafter, the chamber was treated with DMSO or 5 μM efavirenz and incubated at a constant temperature for 12 hours. The SH-SY5Y cells in the plate in which the chamber was treated with DMSO were used as the control. Then, the SH-SY5Y cells in the plate were subjected to immunostaining and observed using a confocal microscope. During the immunostaining, α-synuclein was stained red, and the nuclei were stained blue. Also, fluorescence intensities of α-synuclein in the control and the cells treated with efavirenz were compared. A scale bar represents 20 μm. **P<0.01, ***P<0.001 against the control. […] Also, when the fluorescence intensities of the immunostained α-synuclein were compared, the fluorescence intensity in the cells treated with efavirenz decreased by approximately 80%, compared with that of the control (FIG. 2A).
In the case of the naphazoline-administered group, the cells treated with PBS were used as the control, and the cells treated with DMSO were used as the control in the case of the chlorhexidine- and tenofovir-administered groups. A scale bar represents 20 μm. **P<0.01 and ***P<0.001 against the control.

A53T α-synuclein = molecular target: T2, A53T α-synuclein (Homo sapiens, UniProt P37840, A53T); assay: Co-culture assay of A53T EGFP and A53T mcherry SH-SY5Y cells, aggregation of α-synuclein
T2 construct: expressed in transfected cells; host or cells: SH-SY5Y (lentiviral transduction)
Procedure: A degeneration process of converting monomeric α-synuclein into aggregates may mainly cause Parkinson's disease. Therefore, it was tested whether efavirenz is involved in the propagation process of the over-expressed monomeric A53T α-synuclein to adjacent cells, which is converting the over-expressed monomeric α-synuclein into aggregates.
For this purpose, an SH-SY5Y cell line (A53T EGFP cells) in which EGFP-labeled A53T α-synuclein was over-expressed and an SH-SY5Y cell line (A53T mcherry cells) in which mcherry-labeled A53T α-synuclein was over-expressed were prepared using a lentivirus. Thereafter, the A53T EGFP cells and the A53T mcherry cells were mixed to prepare co-cultured cells. Then, the co-cultured cells were treated with DMSO or 5 μM efavirenz, and co-cultured in the presence of 50 μM retinoic acid (RA) for 5 days. The co-cultured cells treated with DMSO were used as the control. At 5 days of the co-culturing, the aggregated α-synuclein (inclusion body-positive cells) was confirmed using a confocal microscope (the rightmost image of fluorescence images shown in FIG. 3A). Also, each of a combined distribution of EGFP and mcherry in the A53T EGFP cells and a combined distribution of mcherry and EGFP in the A53T mcherry cells was confirmed. […] In the rightmost image of the fluorescence images of FIG. 3A, dots indicated in yellow represent the combining of mcherry and EGFP signals in the cells. In the rightmost image of the fluorescence images of FIG. 3A (a diagram in which EGFP+mcherry signals were combined), the dots indicated in yellow were counted to calculate ratios of the dots to the whole cells, and then plotted on a bar graph. A scale bar represents 20 μm, and ***P<0.001 against the control.
Also, to test whether chlorhexidine, naphazoline, and tenofovir were involved in the process of moving the over-expressed monomeric A53T α-synuclein to adjacent cells to convert the over-expressed monomeric α-synuclein into aggregates, the cells were treated with either 10 μM chlorhexidine, 100 μM naphazoline, or 20 μM tenofovir, and then tested in the same manner as in the experiment for efavirenz. However, in the case of the naphazoline-administered group, the cells treated with PBS were used as the control, and the cells treated with DMSO were also used as the control in the case of the chlorhexidine- and tenofovir-administered groups. A scale bar represents 20 μm.

SH-SY5Y cell line = assay: Cytotoxicity, cell viability by MTT test; conditions: 24 hours
Procedure: An SH-SY5Y cell line (ATCC) was used to confirm the cytotoxicity of efavirenz.
The SH-SY5Y cell line was seeded in a 96-well plate, cultured, treated with an increasing concentration (0, 5, 25 μM) of efavirenz, and then incubated at a constant temperature for 24 hours. Thereafter, cell viability was measured using an MTT test method. Cells treated with 0 μM efavirenz were used as the control. **P<0.01 against the control.
Also, in the next experiment, the cytotoxicities of chlorhexidine (N,N″″-1,6-hexanediylbis[N′-(4-chlorophenyl)(imidocarbon imidic diamide)]), naphazoline(2-(1-naphthylmethyl)-4,5-dihydro-1H-imidazole), and tenofovir (({[(2R)-1-(6-amino-9H-purin-9-yl)-[…]]oxy}methyl)phosphonic acid) to be used as reference drugs were tested in the same manner as in the cytotoxicity experiment of efavirenz. Cells were treated with chlorhexidine at a concentration of 0, 10, 100 μM, treated with naphazoline at a concentration of 0, 100, 200 μM, and treated with tenofovir at a concentration of 0, 20, 30 μM, and cells treated with each control drug at a concentration of 0 μM was used as the control. *P<0.05, ***P<0.001 against the control.

[1] = 10 μM, 5 days co-culture, DMSO control
[2] = 20 μM, 5 days co-culture, DMSO control

decrease of fluorescence intensity of immunostained α-synuclein compared with the control (α-synuclein; 5 μM, DMSO control): approximately 80%
Structure (SMILES): O=C1Nc2ccc(Cl)cc2[C@@](C#CC2CC2)(C(F)(F)F)O1 [efavirenz, (4S)-6-chloro-(cyclopropylethynyl)-1,4-dihydro-4-(trifluoromethyl)-2H-3,1-benzoxazin-2-one]

cell-to-cell transmission of α-synuclein compared with the control (fluorescence image) (α-synuclein; 10 μM, DMSO control): remarkably increased
Structure (SMILES): [H]/N=C(\N/C(=N/[H])NCCCCCCNC(=N)NC(=N)Nc1ccc(Cl)cc1)Nc1ccc(Cl)cc1 [chlorhexidine, N,N″″-1,6-hexanediylbis[N′-(4-chlorophenyl)(imidocarbonimidic diamide)]]
amount of aggregated α-synuclein compared with the control cells (A53T α-synuclein; [1]): increased or were not significantly different
distribution of α-synuclein compared with the control cells (A53T α-synuclein; [1]): increased or were not significantly different

Structure (SMILES): C[C@H](Cn1cnc2c(N)ncnc21)OCP(=O)(O)O [tenofovir]
cell viability compared with the control (SH-SY5Y cell line; 20 μM): not changed significantly
cell viability compared with the control (SH-SY5Y cell line; 30 μM): significant decrease
cell-to-cell transmission of α-synuclein compared with the control (fluorescence image) (α-synuclein; 20 μM, DMSO control): remarkably increased
amount of aggregated α-synuclein compared with the control cells (A53T α-synuclein; [2]): increased or were not significantly different
distribution of α-synuclein compared with the control cells (A53T α-synuclein; [2]): increased or were not significantly different

cell-to-cell transmission of α-synuclein compared with the control (fluorescence image) (α-synuclein; 100 μM, PBS control): remarkably increased
Structure (SMILES): c1ccc2c(CC3=NCCN3)cccc2c1 [naphazoline, 2-(1-naphthylmethyl)-4,5-dihydro-1H-imidazole]
distribution of α-synuclein compared with the control cells (A53T α-synuclein): increased or were not significantly different
amount of aggregated α-synuclein compared with the control cells (A53T α-synuclein; 100 μM, 5 days co-culture, PBS control): increased or were not significantly different
